Data taken from BindingDB's records for doi:10.1021/jm0205043 (University of California, 2003).

Target: Cyclin-dependent kinase 2 (Homo sapiens, UniProt P24941)
Assay: Inhibition of Cyclin-dependent kinase 2 (CDK2)

For `CN1CCC(c2c(O)cc(O)c3c(O)c(Cc4ccc([N+](=O)[O-])cc4)oc23)CC1` [4,6-Dihydroxy-7-(1-methyl-piperidin-4-yl)-2-(4-nitro-benzylidene)-benzofuran-3-one], the IC50 was 310 nM.
